According to a compilation of properties of binary mixtures (doi:10.1016/j.molliq.2016.06.018):

Experiment: xn = mol fraction of the nth substance listed
Conditions: 100 kPa

CCCC[n+]1ccn(C)c1.O=S(=O)([N-]S(=O)(=O)C(F)(F)F)C(F)(F)F + CCCCCCCCN1CCCC1=O
x2 = 0
Conditions | speed of sound [m/s]
298.15 K | 1227.9
303.15 K | 1216.8
308.15 K | 1205.8
313.15 K | 1195
318.15 K | 1184.2
323.15 K | 1173.6

CCCCCCCCN1CCCC1=O + CCCC[n+]1ccn(C)c1.O=S(=O)([N-]S(=O)(=O)C(F)(F)F)C(F)(F)F
speed of sound [m/s]
Conditions | x1 = 0.1125 | x1 = 0.2205 | x1 = 0.3048 | x1 = 0.3915 | x1 = 0.5011 | x1 = 0.5983 | x1 = 0.7076 | x1 = 0.7976 | x1 = 0.8911 | x1 = 1
298.15 K | 1234.8 | 1244.9 | 1255.2 | 1268.2 | 1288.3 | 1310.3 | 1341 | 1371.6 | 1406.7 | 1450.2
303.15 K | – | 1233.4 | 1243.4 | – | 1275.5 | 1297 | – | 1356.6 | 1390.5 | 1432.6
308.15 K | 1212.7 | 1222.1 | 1231.6 | – | – | 1283.7 | 1312.7 | 1341.5 | 1374.3 | –
313.15 K | 1201.8 | – | 1219.9 | 1231.6 | 1250 | 1270.4 | 1298.7 | 1326.5 | 1358.3 | 1398
318.15 K | 1190.9 | 1199.6 | 1208.3 | 1219.6 | 1237.5 | 1257.3 | 1284.9 | 1311.7 | 1342.4 | 1380.9
323.15 K | 1180.1 | 1188.4 | 1196.8 | 1207.6 | 1224.9 | 1244.2 | 1271.2 | 1297.1 | – | 1364
